Measured values: patent publication US20230255975A1, “METHODS FOR TREATING CANCER WITH COMBINATION THERAPIES” (Celgene Corporation, priority 2020, published 2023)

Experiments:
Assay type in all cases: cell-based
MOLP-8 cell line = experiment: Proliferation assay; settings: Homo sapiens, KRAS K180del, NRAS p.Q61L, p-ERK High, read-out: IC50 (μM) Trametinib
Experimental: (§1) Proliferation and viability assays: Cell growth curves were determined by monitoring the viability of cells with Trypan blue exclusion on a Vi-Cell-XR (Becton Dickinson, Franklin Lakes, N.J., USA). Proliferation assays were performed in triplicate at least three times (n=3) using (3H)-thymidine incorporation. All data were plotted and analyzed using GraphPad Prism 7 (GraphPad Software, La Jolla, Calif., USA) software, represented as the mean with an error determined as ±s.d.

U266 cell line = experiment: Proliferation assay; settings: Homo sapiens, U-266, BRAF K601N, p-ERK High, read-out: IC50 (μM) Trametinib
Experimental: as §1

KMS-20 cell line = experiment: Proliferation assay; settings: KRAS G12S, p-ERK High, read-out: IC50 (μM) Trametinib
Experimental: as §1

KMM-1 cell line = experiment: Proliferation assay; settings: NRAS G13D, p-ERK High, read-out: IC50 (μM) Trametinib
Experimental: as §1

KARPAS-620 cell line = experiment: Proliferation assay; settings: p-ERK High, read-out: IC50 (μM) Trametinib
Experimental: as §1

AMO1 cell line = experiment: Proliferation assay
Experimental: as §1
as §1, with “assay.” for “assays:”, “Cell lines” for “Proliferation assays”, “plated” for “performed”, “in 96-well round-bottom plates with the indicated drug concentrations or knockdown cells. […]” for “at least three times (n=3) using (3H)-thymidine incorporation.”

Mc-CAR cell line = experiment: Proliferation assay; settings: McCAR; WT; p-ERK High; read-out: IC50 (μM) Trametinib
Experimental: as §1
(§2) Proliferation and viability assay. Cell growth curves were determined by monitoring the viability of cells with Trypan blue exclusion on a Vi-Cell-XR (Becton Dickinson, Franklin Lakes, N.J., USA). Cell lines were plated in triplicate in 96-well round-bottom plates with the indicated drug concentrations or knockdown cells. Proliferation assays were performed in triplicate at least three times (n=3) using either the WST-1 tetrazolium salt (Roche Applied Science) reagent used according to the manufacturer's specifications or by (3H)-thymidine incorporation as previously described (Bjorklund et al., Blood Cancer Journal 5, e354, 2015). All data were plotted and analyzed using GraphPad Prism 7 (GraphPad Software, La Jolla, Calif., USA) software, represented as the mean with an error determined as ±s.d.

H929 cell line = experiment: Proliferation assay; settings: Homo sapiens, NCI-H929, NRAS G13D, p-ERK Medium, read-out: IC50 (μM) Trametinib
Experimental: as §1, §2

[1] = test system: FOXM1 in K12PE-PR cell line; experiment: FOXM1 expression after BIRC5 inhibition; settings: FIG. 26B
Text: (§3) Inhibition of BIRC5 by YM155 also downregulates FOXM1 and pro-survival signaling.

[2] = test system: FOXM1 in AMO1-PR cell line; experiment: FOXM1 expression after BIRC5 inhibition; settings: FIG. 26B
Text: as §3

K12PE-PR cell line = experiment: Proliferation assay
Experimental: as §1
as §1, with “assay.” for “assays:”, “Cell lines” for “Proliferation assays”, “plated” for “performed”, “in 96-well round-bottom plates with the indicated drug concentrations or knockdown cells. […]” for “at least three times (n=3) using (3H)-thymidine incorporation.”

[3] = test system: AMO1-PR (pomalidomide resistant) cell line; experiment: Proliferation assay
Experimental: as §1
as §1, with “assay.” for “assays:”, “Cell lines” for “Proliferation assays”, “plated” for “performed”, “in 96-well round-bottom plates with the indicated drug concentrations or knockdown cells. […]” for “at least three times (n=3) using (3H)-thymidine incorporation.”

K12PE cell line = experiment: Proliferation assay
Experimental: as §1
as §1, with “assay.” for “assays:”, “Cell lines” for “Proliferation assays”, “plated” for “performed”, “in 96-well round-bottom plates with the indicated drug concentrations or knockdown cells. […]” for “at least three times (n=3) using (3H)-thymidine incorporation.”

[4] = test system: BIRC5 (Survivin) in MM1.S cell line; experiment: BIRC5 levels in response to Compound 5; settings: 48 and 72 hours, followed by onset of apoptosis
Experimental: BIRC5 levels decreased in response to Compound 5 treatment at 48 and 72 hours, followed by an onset of apoptosis in MM1.S cell line (FIG. 23B).

AMO1 cells = experiment: Apoptosis by Annexin V and Topro staining; settings: AMO-1 cells
Experimental: (§4) Flow cytometry: Annexin-V Alexa Fluor 488-conjugated antibody (Thermo Scientific, Waltham, Mass., USA) and To-Pro-3 (Thermo Scientific, Waltham, Mass., USA) were used according to the manufacturer's protocol and processed using Flow Jo software for at least three independent experiments. For cell cycle analysis, cells were stained with Propidium Iodide (PI) staining kit (Abcam, Cambridge, Mass., USA) and analysis was performed on Flow Jo V10 software. Staining of mitotic marker pHH3-Ser^10 was also performed by pHH3-Ser^10 and PI dual staining.
The PLK1 inhibitor BI2536 and Compound 5 were tested for their activity as individual agents and in combination in AMO1 parental and AMO1-PR cell lines. […] Changes in apoptosis were analyzed using the single agent treatments and their combination using Annexin V and Topro staining. […] Changes in Ikaros and pro-survival signaling in these cell lines was analyzed in response to BI2536 and Compound 5 after 24 and 72 hours of treatment (FIG. 5K).

[5] = test system: PLK1 signaling in MM1.S cells; experiment: Immunoblot of PLK1 signaling; settings: FIG. 2C
Experimental: Immunoblotting: Immunoblot analysis was performed using WES kits, (Protein Simple, San Jose, Calif., USA) at least two times each (n≥2), where the best representative is shown.
The effects of pomalidomide in isogenic sensitive (EJM) and resistant (EJM-PR) and MM1.S cell lines was analyzed. […] To determine the role of PLK1 in pomalidomide response, EJM and EJM-PR cell lines were treated with pomalidomide and analyzed changes in PLK1 levels and downstream signaling. […] The changes in PLK1 transcript levels were further examined in response to pomalidomide treatment in MM1. […] Confocal microscopy was performed to study changes in PLK1 and CDC25C staining in MM1.S cells and a decrease in PLK1 levels and simultaneous decrease in CDC25C staining in response to pomalidomide and Compound 5 treatments was observed. […] Further analysis of the ChIP-seq datasets of Aiolos confirmed binding of Aiolos on TSS of PLK1 with overlapping transcriptional activation H3K27Ac signature extrapolated from publicly available ChIP-seq datasets in GM12878 cell line (Encode project). Since changes in PLK1 levels are due to decrease in PLK1 transcription in response to antiproliferative compounds, the effects of Aiolos and Ikaros knockdowns on PLK1 levels using MM1.S cells with inducible expression of Aiolos and Ikaros shRNAs were analyzed. Both Aiolos and Ikaros knock down lead to a decrease in PLK1 levels (FIG. 2F), indicating transcriptional regulation of PLK1 by substrates of Cereblon.

AMO1 control shRNA cells = experiment: Proliferation assay in control shRNA cells; settings: Homo sapiens; control shRNA AMO1 cells; read-out: IC50, proliferation
Experimental: as §2
(§5) To further confirm the synergistic effect, shRNA knockdown was combined with either Compound 5 or Compound 6 treatment. Expression of control and NEK2 shRNA in AMO1 cell lines was induced, followed by exposure of the cells to increasing concentrations of Compound 5 and Compound 6. The results were measured through a proliferation assay.

phospho Ser10-histone H3 = phospho Ser10-histone H3 (G2-M marker) flow cytometry; settings: vehicle 16.5
Experimental: as §4
(§6) The changes in phospho Ser10-histone H3 which is a specific marker for G2-M phase using flow cytometry were measured. […] Nocodazole synchronizes cells in G2-M phase of cell cycle. At time points 30 minutes, 2 hours and 6 hours post rescue from overnight Nocodazole treatment, PLK1 levels were higher compared to vehicle condition (FIG. 3). Then, due to rescue from cell cycle synchronization post Nocodazole treatment, PLK1 levels normalized. In response to Compound 5 treatment, while Ikaros degradation began to happen after 30 minutes of treatments, downregulation of PLK1 and CDC25C levels was evident at 48 hours post treatment. In response to Nocodazole and Compound 5 combination treatment, the decrease in PLK1 levels was accelerated. Changes in cleaved caspase 3 inversely correlated with PLK1 levels, with an increase in cleaved caspase 3 at 48 and 72 hours post Compound 5 treatment with a decrease in PLK1 levels. Cell cycle studies matched with these time points. […] In case of Nocodazole and Compound 5 combination treatment, an accelerated decrease in G2-M cells and a higher increase in sub-G1 cells was observed.

MM cell lines = experiment: Cell cycle analysis (PI staining, flow cytometry) in response to Compound 5; settings: for sub-G1 population: vehicle 5.02, cell line not named; for G2-M population: vehicle 16.3; for G0-G1 population: vehicle 69.2
Experimental: as §4, §6

[6] = test system: AMO1 NEK2 shRNA (NEK2 knocked-down) cells; experiment: Proliferation assay in NEK2 knocked-down cells
Experimental: as §2, §5

Which IC50 (MOLP-8 cell line) does the source give for CC(=O)Nc1cccc(-n2c(=O)n(C3CC3)c(=O)c3c(Nc4ccc(I)cc4F)n(C)c(=O)c(C)c32)c1 [Trametinib] here?
Its IC50 is 0.0117 µM.

What about the IC50 (U266 cell line) of the same compound?
The IC50 was 0.000353 µM.

What about the IC50 (KMS-20 cell line) of the same compound?
Its IC50 is 0.00222 µM.

What about the IC50 (KMM-1 cell line) of the same compound?
Its IC50 is 0.00169 µM.

And the IC50 (KARPAS-620 cell line)?
Its IC50 is 0.07 nM.

And the IC50 (AMO1 cell line; Homo sapiens, Amo1, KRAS146T, p-ERK High, read-out: IC50 (μM) Trametinib)?
Its IC50 is 0.0012 µM.

What about the IC50 (Mc-CAR cell line) of the same compound?
The IC50 was 0.0031 µM.

And the IC50 (H929 cell line)?
Its IC50 is 0.00328 µM.

COCCn1c2c([n+](Cc3cnccn3)c1C)C(=O)c1ccccc1C2=O.[Br-] [YM155, 1-(2-methoxyethyl)-2-methyl-4,9-dioxo-3-(pyrazin-2-ylmethyl)-4,9-dihydro-1H-naphtho[2,3-d]imidazol-3-ium bromide] was tested. Which FOXM1 expression [1] did it give?
The FOXM1 expression was “downregulated FOXM1 expression in a dose dependent manner”.

What about the FOXM1 expression [2] of the same compound?
The FOXM1 expression was “downregulated FOXM1 expression in a dose dependent manner”.

What about the EC50 (AMO1 cell line; Homo sapiens, AMO1, BIRC5 inhibitor) of the same compound?
Its EC50 is 1.09 nM.

What about the EC50 (K12PE-PR cell line; K12PE-PR, BIRC5 inhibitor) of the same compound?
The EC50 was 1.07 nM.

And the EC50 ([3]; BIRC5 inhibitor)?
Its EC50 is 0.12 nM.

What about the EC50 (K12PE cell line; K12PE, BIRC5 inhibitor) of the same compound?
The EC50 was 1.47 nM.

With O=C1CC[C@H](N2Cc3c(OCc4ccc(CN5CCOCC5)cc4)cccc3C2=O)C(=O)N1 [Compound 5, (S)-3-(4-((4-(morpholinomethyl)benzyl)oxy)-1-oxoisoindolin-2-yl)piperidine-2,6-dione] as the compound, how does the BIRC5 levels [4] read?
Its BIRC5 levels is “decreased”.

What about the late apoptosis (AMO1 cells; vehicle 2.24%) of the same compound?
The late apoptosis was 3.07%.

What about the early apoptosis (AMO1 cells; vehicle 2.69%) of the same compound?
The early apoptosis was 4.86%.

And the “Synergy (Calcusyn) with NEK2 inhibitors (JH295 and rac-CCT 250863) on proliferation” value (AMO1 cell line; AMO1, NEK2 inhibitor 0.016-10 μM)?
The value was “strong synergy”.

What about the “Combination analysis (Calcusyn) with YM155 on proliferation” value (AMO1 cell line; AMO1, in combination with YM155) of the same compound?
The value was “synergistic activity”.

What about the “Synergy with trametinib on proliferation” value (AMO1 cell line; AMO1, in combination with trametinib) of the same compound?
Its value is “strong synergy”.

And the “Synergy of combination with JQ1 on proliferation” value (K12PE-PR cell line; Pom resistant K12PE-PR, in combination with JQ1)?
The value was “synergistically decreased proliferation”.

What about the “Synergy (Calcusyn) with NEK2 inhibitors (JH295 and rac-CCT 250863) on proliferation” value ([3]; NEK2 inhibitor 0.016-10 μM) of the same compound?
Its value is “strong synergy”.

What about the “Combination analysis (Calcusyn) with YM155 on proliferation” value ([3]; in combination with YM155) of the same compound?
The value was “synergistic activity”.

What about the “Synergy with trametinib on proliferation” value ([3]; in combination with trametinib) of the same compound?
Its value is “strong synergy”.

And the “Synergy analysis (Calcusyn) of combination with JQ1 on proliferation” value (K12PE cell line; K12PE cells, in combination with JQ1)?
Its value is “synergistic”.

And the “Dose giving decrease in PLK1 levels and downstream signaling relative to pomalidomide” value [5]?
The value was “ten times lower dose”.

And the PLK1 signaling ([5]; MMS.1 cells, increasing concentrations)?
Its PLK1 signaling is “dose dependent decrease”.

What about the IC50 (AMO1 control shRNA cells) of the same compound?
Its IC50 is 105 nM.

What about the “levels of phospho Ser10-histone H3” value (phospho Ser10-histone H3; 10 nM) of the same compound?
Its value is 9.3.

What about the “levels of phospho Ser10-histone H3” value (phospho Ser10-histone H3; 30 nM) of the same compound?
Its value is 6.37.

What about the “levels of phospho Ser10-histone H3” value (phospho Ser10-histone H3; 100 nM) of the same compound?
Its value is 4.53.

And the sub-G1 population (MM cell lines; 10 nM)?
The sub-G1 population was 4.98.

What about the G2-M population (MM cell lines; 10 nM) of the same compound?
Its G2-M population is 12.3.

What about the G0-G1 population (MM cell lines; 10 nM) of the same compound?
Its G0-G1 population is 75.8.

And the sub-G1 population (MM cell lines; 30 nM)?
Its sub-G1 population is 11.3.

And the G2-M population (MM cell lines; 30 nM)?
Its G2-M population is 6.94.

And the G0-G1 population (MM cell lines; 30 nM)?
The G0-G1 population was 78.3.

And the sub-G1 population (MM cell lines; 100 nM)?
The sub-G1 population was 13.9.

And the G2-M population (MM cell lines; 100 nM)?
Its G2-M population is 6.27.

What about the G0-G1 population (MM cell lines; 100 nM) of the same compound?
Its G0-G1 population is 75.1.

And the IC50 ([6]; Homo sapiens, NEK2 knocked-down AMO1 cells)?
Its IC50 is 18.7 nM.

What about the “Increase of activity by NEK2 knockdown in comparison to control shRNA cell line” value ([6]; IC50 control cells vs NEK2 knocked-down cells) of the same compound?
Its value is 5 fold.
